# Tests used:
# [1] = test system: all microorganisms tested; experiment: Broth microdilution MIC, statement for all microorganisms tested; assay type: cell-based; conditions: for Antibacterial activity (in words): tested microorganisms
# Method: (§1) Antibacterial assays were conducted in vitro using the broth microdilution method. The minimum inhibitory concentration (MIC) is the smallest concentration of antibacterial agent at which bacterial growth is not observed. MIC values were determined for 4 Gram-positive bacteria (methicillin-resistant Staphylococcus aureus ATCC 43300 (MRSA), Bacillus subtilis ATCC 6633, Kocuria rhizophila 9341, Staphylococcus epidermidis ATCC 12228), 3 Gram-negative bacteria (Klebsiella pneumoniae ATCC 4532, Pseudomonas aeruginosa ATCC 27853, Escherichia coli ATCC 8739) and the fungal strain, Candida albicans ATCC 10231. Frozen stocks of bacteria were incubated on Muller Hinton agar plates for 24 h at 37 °C. From this culture, a bacterial suspension of 1 × 10^6 colony forming units CFU/mL was prepared in MHB (pH = 7.3). Two dilutions of pure surfactants and their binary mixtures were prepared in MH broth to obtain a final concentration ranging from 4 to 454 μM in the microtiter plates.
# (§2) Then, 10 μL of nutrient broth culture of each microorganism was added to achieve a final density of ca. 5 × 10^5 CFU/mL. The cultures were incubated for 24 h at 37 °C. Every assay was repeated three times.
# [2] = parameters: method as in PMID 17319702; conditions: cited from earlier work
# [3] = SAXS, core-shell model fit; assay type: physicochemical
# Method: SAXS was measured at the Non-Crystalline Diffraction beamline at ALBA Synchrotron NCD-SWEET, Barcelona. A sample-detector distance of 2.433 m was used with 0.10 nm wavelength coupled with a Q315r detector from ADSC. The q scale was calibrated with a silver behenate sample, and data reduction was performed with the software provided by the beamline. The intensity is shown as a function of scattering vector q expressed in nm^−1. q = (4π/λ) sin(θ/2), where θ is the scattering angle and λ is the wavelength of radiation. The spectra have been fitted to lamellar models based on Gaussian description of the bilayer electronic profile for the vesicles, as described in Haba et al.. We have kept the bilayer hydrophobic profile constant along all the samples to avoid overfitting. In these conditions, the estimated error in the position of the headgroups is 2% and 5% for the width of the Gaussian. The pure histidine derivative DMHNHC14 has been fitted to a core-shell model as described in Reference. SAXS of the pure DMHNHC14 compound was measured using an in-house instrument S3-MICRO (Hecus X-ray systems GMBH, Graz, Austria) coupled to a GENIX-Fox three-dimensional (3D) X-ray source (Xenox, Grenoble, France), as described in Reference and performing the same procedures as detailed therein.
# [4] = test system: Klebsiella pneumoniae ATCC 13883; experiment: Broth microdilution MIC; assay type: cell-based; conditions: 24 h, 37 °C, total surfactant concentration
# [5] = test system: Escherichia coli ATCC 25922; experiment: Broth microdilution MIC; assay type: cell-based; conditions: 24 h, 37 °C, total surfactant concentration
# [6] = test system: Bacillus subtilis ATCC 6633; experiment: Broth microdilution MIC; assay type: cell-based; conditions: 24 h, 37 °C, total surfactant concentration
# Method: as §1, §2
# [7] = test system: Candida albicans ATCC 10231; experiment: Broth microdilution MIC; assay type: cell-based; conditions: 24 h, 37 °C, total surfactant concentration
# Method: as §1, §2
# [8] = test system: Kocuria rhizophila ATCC 9341; experiment: Broth microdilution MIC; assay type: cell-based; conditions: 24 h, 37 °C, total surfactant concentration
# Method: as §1, §2
# [9] = test system: Pseudomonas aeruginosa ATCC 27853; experiment: Broth microdilution MIC; assay type: cell-based; conditions: 24 h, 37 °C, total surfactant concentration
# Method: as §1, §2
# [10] = test system: Staphylococcus epidermidis ATCC 12228; experiment: Broth microdilution MIC; assay type: cell-based; conditions: 24 h, 37 °C, total surfactant concentration
# Method: as §1, §2
# erythrocytes = assay type: cell-based, rabbit
# Method: The erythrocytes, taken from rabbit blood samples, were washed three times in PBS (pH 7.4) and resuspended in PBS at a cell density of 8 × 10^9 cells/mL. The hemolytic activity of the catanionic formulations used in this work was carried out using the procedure described by Pape et al. with minor modifications. A series of different volumes of a concentrated solution (1000 μM for the general case and 5000 μM for the 20:80 and cholesterol-containing formulations) of the catanionic formulation (10–80 μL) were placed in polystyrene tubes containing 25 μL of the prepared erythrocyte suspension and PBS buffer was added to each tube to a total volume of 1 mL. The resulted solutions were incubated at room temperature and shaken for 10 min and the tubes were then centrifuged (5 min at 10,000 rpm). The hemolysis (%) was calculated by comparing the absorbance (540 nm) of the supernatant of the solutions with that of Milli-Q water (control 100% hemolysis) and PBS buffer solution (control, 0% hemolysis).
# [11] = 10 mM NaCl CO2 saturated solution
Compound,MIC ([1]; read-out: MIC for all microorganisms tested) [µM],Antibacterial activity (in words) [1],"Concentration at which surface tension stabilizes [2, 11]","Limiting surface tension [2, 11]",Surface tension at CMC ([2]; basic conditions),CMC ([2]; basic media) [mM],Aggregation number ([3]; from SAXS core-shell fit),Area per molecule (SAXS) ([3]; from SAXS core-shell fit) [nm^2],Hydration degree per polar head ([3]; from hydrophilic shell volume and electronic density),Hydrophilic corona thickness (core-shell model) ([3]; micelles of pure surfactant) [nm],Hydrophobic radius (core-shell model) ([3]; micelles of pure surfactant) [nm],MIC [4] [µM],MIC [5] [µM],MIC [6] [µM],MIC [7] [µM],MIC [8] [µM],MIC [9] [µM],MIC [10] [µM],Hemolytic activity (erythrocytes)
"CCCCCCCCCCCCCC(=O)O [Sodium myristate, sodium myristate]",> 113,did not show activity,around 0.3 mM,about 25 mNm^−1,about 40 mNm^−1,3,,,,,,,,,,,,,
"N(π),N(τ)-bis(methyl)-L-Histidine tetradecyl amide [DMHNHC14]",,broad spectrum of antibacterial activity,,,,,64,0.66,about 17 water molecules,0.88,1.84,113,113,28,28,28,227,14,increases with the dose

# — publication PMC7727793, “Aggregation Behavior, Antibacterial Activity and Biocompatibility of Catanionic Assemblies Based on Amino Acid-Derived Surfactants” (International Journal of Molecular Sciences, 2020)
